Test results: the supplement of paper PMC11061612

What was measured:
J82 (Bladder Carcinoma) [1] = assay: combination Emax (second highest fraction inhibited in the dose matrix, 72 h); higher = more inhibition; extreme values may be limits of the assay
How it was run: (§1)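 Cell lines in DMEM/F12 or RPMI with 10% FBS were plated in 1536-well plates, held 24 hours at 37°C, 5% CO2, then given two-drug dose matrices for 72 hours (DMSO typically 0.2%). Viability was read by CellTiter-Glo 2.0 luminescence and scaled as inhibition from 0 (vehicle wells) to 1 (blank wells). Combination Emax is the second-highest inhibition in the matrix; Bliss excess is observed combination effect minus expected EA + EB − EA·EB, EA and EB being single-agent effects.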

[2] = tested on: 697 (B-Lymphoblastic Leukemia); assay: as above
How it was run: as §1

[3] = tested on: SW1088 (Low Grade Glioma); assay: as above
How it was run: as §1

[4] = tested on: NCI-H1299 (Non-Small Cell Lung Carcinoma); assay: as above
How it was run: as §1

[5] = tested on: SW1990 (Pancreatic Carcinoma); assay: as above
How it was run: as §1

[6] = tested on: LS-513 (Colorectal Carcinoma); assay: as above
How it was run: as §1

CAL-78 (Chondrosarcoma) = assay: as above
How it was run: as §1

[7] = tested on: NCI-H1793 (Lung Adenocarcinoma); assay: as above
How it was run: as §1

ES7 (Ewing's Sarcoma) = assay: as above
How it was run: as §1

J82 (Bladder Carcinoma) [8] = assay: Bliss excess, mean over the matrix (fraction); higher = more synergy
How it was run: as §1

[9] = tested on: JiyoyeP-2003 (Burkitt's Lymphoma); assay: as above
How it was run: as §1

[10] = tested on: KARPAS-620 (Plasma Cell Myeloma); assay: as above
How it was run: as §1

[11] = tested on: KATOIII (Gastric Carcinoma); assay: as above
How it was run: as §1

[12] = tested on: U-266 (Plasma Cell Myeloma); assay: as above
How it was run: as §1

[13] = tested on: G-292-Clone-A141B1 (Osteosarcoma); assay: as above
How it was run: as §1

[14] = tested on: NCI-H1299 (Non-Small Cell Lung Carcinoma); assay: as above
How it was run: as §1

[15] = tested on: MFH-ino (Other Solid Carcinomas); assay: as above
How it was run: as §1

[16] = tested on: IHH-4 (Thyroid Gland Carcinoma); assay: as above
How it was run: as §1

[17] = tested on: CTV-1 (T-Lymphoblastic Leukemia); assay: as above
How it was run: as §1

RH-1 (Ewing's Sarcoma) = assay: as above
How it was run: as §1
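For Bliss excess, mean over the matrix in this document: after 72 h of two-drug dosing.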

SMILES	combination Emax (J82 (Bladder Carcinoma) [1])	combination Emax [2]	combination Emax [3]	combination Emax [4]	combination Emax [5]	combination Emax [6]	combination Emax (CAL-78 (Chondrosarcoma))	combination Emax [7]	combination Emax (ES7 (Ewing's Sarcoma))	Bliss excess (J82 (Bladder Carcinoma) [8])	Bliss excess [9]	Bliss excess [10]	Bliss excess [11]	Bliss excess [12]	Bliss excess [13]	Bliss excess [14]	Bliss excess [15]	Bliss excess [16]	Bliss excess [17]	Bliss excess (RH-1 (Ewing's Sarcoma))
C[C@@H](c1ccc2nccn2c1)n1nnc2ncc(-c3cnn(C)c3)nc21 [Savolitinib] + CC1(C)CCC(CN2CCN(c3ccc(C(=O)NS(=O)(=O)c4ccc(NCC5CCOCC5)c([N+](=O)[O-])c4)c(Oc4cnc5[nH]ccc5c4)c3)CC2)=C(c2ccc(Cl)cc2)C1 [Venetoclax] (first compound max 1 µM, 7x7, partner max 1 µM)	0.145	1	0.224	0.14	0.225	0.0791	0.187	0.193	0.177	-0.0895	-0.0438	-0.0449	-0.0364	-0.0118	-0.0442	-0.0418	-0.0657	-0.0399	-0.0245	-0.0321
Cc1c2c(nn1C)CSCc1cc(n(C)n1)CSc1cc(c3ccccc3c1)OCCCc1c(C(=O)O)n(C)c3c-2c(Cl)ccc13 [AZD5991] + CCN(CCO)CCCOc1ccc2c(Nc3cc(CC(=O)Nc4cccc(F)c4)[nH]n3)ncnc2c1 [AZD2811] (first compound max 1 µM, 7x7, partner max 1 µM)	0.192	1	0.494	0.406	0.298	0.623	0.868	0.2	0.95	0.0288	0.0917	0.066	-0.0687	0.0482	-0.021	-0.0012	0.0053	0.0306	0.0556	-0.0457
NC1(C(=O)N[C@@H](CCO)c2ccc(Cl)cc2)CCN(c2ncnc3[nH]ccc23)CC1 [Capivasertib] + CC(=O)c1c(C)c2cnc(Nc3ccc(N4CCNCC4)cn3)nc2n(C2CCCC2)c1=O [Palbociclib] (first compound max 10 µM, 7x7, partner max 10 µM)	0.452	0.838	0.654	0.465	0.214	0.675	0.542	0.361	0.655	-0.0134	0.0203	0.0171	-0.0242	-0.0606	0.0166	0.0662	-0.0353	0.0815	0.0198	-0.0427
NC1(C(=O)N[C@@H](CCO)c2ccc(Cl)cc2)CCN(c2ncnc3[nH]ccc23)CC1 [Capivasertib] + COc1nnc2ccc(N3CCC(c4ccc(OCCN5CCN(C)C(=O)[C@H]5C)cc4)CC3)nn12 [AZD5153] (first compound max 10 µM, 7x7, partner max 1 µM)	0.632	0.985	0.638	0.669	0.208	0.641	0.489	0.37	0.811	0.0421	-0.0714	-0.0154	-0.0386	0.0076	0.0249	0.0174	0.0006	0.0199	0.0097	0.0517
COc1nnc2ccc(N3CCC(c4ccc(OCCN5CCN(C)C(=O)[C@H]5C)cc4)CC3)nn12 [AZD5153] + Cn1cnc2c(F)c(Nc3ccc(Br)cc3Cl)c(C(=O)NOCCO)cc21 [Selumetinib] (first compound max 1 µM, 7x7, partner max 10 µM)	0.496	1	0.513	0.729	0.265	0.951	0.391	0.373	0.549	0.014	-0.0117	0.112	-0.0294	0.0347	-0.0388	-0.0243	-0.0031	0.0085	0.0009	-0.0267
CN(C)CCCOc1ccc(-c2ccc3ncc4c(c3c2)n(C2CCOCC2)c(=O)n4C)cn1 [AZD0156] + O=C(c1cc(Cc2n[nH]c(=O)c3ccccc23)ccc1F)N1CCN(C(=O)C2CC2)CC1 [Olaparib] (first compound max 3 µM, partner max 3 µM)	0.128	0.97	0.417	0.335	0.16	0.267	0.272	0.496	0.853	-0.0375	0.007	0.0798	-0.0125	-0.106	-0.0003	0.0495	-0.061	0.0949	0.0654	0.265
Cc1c2c(nn1C)CSCc1cc(n(C)n1)CSc1cc(c3ccccc3c1)OCCCc1c(C(=O)O)n(C)c3c-2c(Cl)ccc13 [AZD5991] + C1CN(CCC1(C(=O)N[C@@H](CCO)C2=CC=C(C=C2)Cl)N)C3=NC=NC4=C3C=CN4 [Capivasertib] (first compound max 1 µM, 7x7, partner max 3 µM)	0.201	1	0.527	0.224	0.121	0.344	0.868	0.302	0.825	-0.0046	0.0371	-0.0097	-0.0267	0.0662	-0.0115	-0.0174	-0.0372	0.0037	0.0027	0.0157
NC1(C(=O)N[C@@H](CCO)c2ccc(Cl)cc2)CCN(c2ncnc3[nH]ccc23)CC1 [Capivasertib] + Cn1cnc2c(F)c(Nc3ccc(Br)cc3Cl)c(C(=O)NOCCO)cc21 [Selumetinib] (first compound max 10 µM, 7x7, partner max 10 µM)	0.413	0.617	0.618	0.615	0.368	0.867	0.452	0.39	0.448	-0.021	0.101	0.114	0.0291	0.0745	-0.0056	0.0153	-0.0205	-0.0165	0.106	0.0148
C[C@@H](c1ccc2nccn2c1)n1nnc2ncc(-c3cnn(C)c3)nc21 [Savolitinib] + Cc1c2c(nn1C)CSCc1cc(n(C)n1)CSc1cc(c3ccccc3c1)OCCCc1c(C(=O)O)n(C)c3c-2c(Cl)ccc13 [AZD5991] (first compound max 1 µM, 7x7, partner max 1 µM)	0.205	1	0.261	0.151	0.127	0.155	0.697	0.173	0.554	-0.0717	-0.0034	-0.049	-0.0149	-0.0655	-0.0381	-0.0519	-0.0572	-0.0182	-0.0223	0.0031
CCN(CCO)CCCOc1ccc2c(Nc3cc(CC(=O)Nc4cccc(F)c4)[nH]n3)ncnc2c1 [AZD2811] + C=CCn1c(=O)c2cnc(Nc3ccc(N4CCN(C)CC4)cc3)nc2n1-c1cccc(C(C)(C)O)n1 [AZD1775] (first compound max 1 µM, partner max 1 µM)	0.315	1	0.47	0.763	0.458	0.703	0.51	0.359	0.783	0.0001	0.0548	-0.0619	-0.0459	0.0031	-0.0368	-0.024	-0.0399	0.0451	0.0014	-0.0163
Cc1c2c(nn1C)CSCc1cc(n(C)n1)CSc1cc(c3ccccc3c1)OCCCc1c(C(=O)O)n(C)c3c-2c(Cl)ccc13 [AZD5991] + C[C@@H]1COCCN1C2=NC(=NC(=C2)C3(CC3)[S@](=N)(=O)C)C4=C5C=CNC5=NC=C4 [AZD6738] (first compound max 1 µM, 7x7, partner max 10 µM)	0.389	1	0.565	0.71	0.491	0.752	0.796	0.488	0.852	0.0009	0.0159	0.0243	-0.0192	0.0624	-0.001	0.0159	0.0319	0.0349	0.0021	-0.0221
Cc1c2c(nn1C)CSCc1cc(n(C)n1)CSc1cc(c3ccccc3c1)OCCCc1c(C(=O)O)n(C)c3c-2c(Cl)ccc13 [AZD5991] + CN(C)CCCOc1ccc(-c2ccc3ncc4c(c3c2)n(C2CCOCC2)c(=O)n4C)cn1 [AZD0156] (first compound max 1 µM, 7x7, partner max 1 µM)	0.22	1	0.242	0.368	0.241	0.275	0.786	0.302	0.726	0.0127	-0.0359	0.02	-0.0068	0.0057	-0.025	0.0163	-0.0286	0.0541	0.0012	0.0081
CC(=O)c1c(C)c2cnc(Nc3ccc(N4CCNCC4)cn3)nc2n(C2CCCC2)c1=O [Palbociclib] + CC1(C)CCC(CN2CCN(c3ccc(C(=O)NS(=O)(=O)c4ccc(NCC5CCOCC5)c([N+](=O)[O-])c4)c(Oc4cnc5[nH]ccc5c4)c3)CC2)=C(c2ccc(Cl)cc2)C1 [Venetoclax] (first compound max 10 µM, 7x7, partner max 1 µM)	0.237	1	0.429	0.326	0.143	0.648	0.278	0.197	0.644	-0.0388	0.0975	0.0056	-0.0606	-0.116	-0.0368	0.0231	-0.0576	0.0096	0.0415	0.0175
Cc1cc2ncnn2cc1Nc1ncc2c(n1)n(C1CCOCC1)c(=O)n2C [AZD7648] + O=C(c1cc(Cc2n[nH]c(=O)c3ccccc23)ccc1F)N1CCN(C(=O)C2CC2)CC1 [Olaparib] (first compound max 10 µM, 7x7, partner max 10 µM)	0.351	0.988	0.303	0.249	0.11	0.19	0.252	0.371	0.846	0.0357	0.0339	-0.0306	-0.0367	-0.0247	-0.0855	-0.03	-0.0705	-0.0313	0.0056	-0.0115
